Data published in US20240262727A1, “METHOD FOR IMPROVING BIOLOGICAL NITROGEN REMOVAL EFFECT OF LOW-TEMPERATURE SEWAGE” (Sichuan University, priority 2023, published 2024).

Test system: activated sludge
Assay: Activated sludge SBR reactor, biological nitrogen removal with added AHLs signal molecule
Conditions: remaining steps as Example 1 (10° C.)

CCCCCC(=O)N[C@H]1CCOC1=O [C6-HSL, N-hexanoyl-L-homoserine lactone]
ammonia-nitrogen removal efficiency (10 μg/L after addition): 82.34%
ammonia-nitrogen removal efficiency (100 μg/L after addition): 84.29%
